Results: ChEMBL document CHEMBL3714753, “Substituted tetrahydroquinolines, phenylacetic acids and benzoic acids as hepatocyte nuclear factor 4 (hnf-4 ) modulator compounds” (2005)

Columns and labels:
[1] = biological target: T1, Hepatocyte nuclear factor 4-alpha (Homo sapiens, UniProt P41235); experiment: Displacement of radiolabeled methyl-4-[5,6,7,8-tetrahydro-5,5,8,8-tetramethyl-3-ethyloxy-2-naphthalenyl]benzoyl benzoate from HNF4alpha (unknown origin)
T1 sequence (P41235 whole entry): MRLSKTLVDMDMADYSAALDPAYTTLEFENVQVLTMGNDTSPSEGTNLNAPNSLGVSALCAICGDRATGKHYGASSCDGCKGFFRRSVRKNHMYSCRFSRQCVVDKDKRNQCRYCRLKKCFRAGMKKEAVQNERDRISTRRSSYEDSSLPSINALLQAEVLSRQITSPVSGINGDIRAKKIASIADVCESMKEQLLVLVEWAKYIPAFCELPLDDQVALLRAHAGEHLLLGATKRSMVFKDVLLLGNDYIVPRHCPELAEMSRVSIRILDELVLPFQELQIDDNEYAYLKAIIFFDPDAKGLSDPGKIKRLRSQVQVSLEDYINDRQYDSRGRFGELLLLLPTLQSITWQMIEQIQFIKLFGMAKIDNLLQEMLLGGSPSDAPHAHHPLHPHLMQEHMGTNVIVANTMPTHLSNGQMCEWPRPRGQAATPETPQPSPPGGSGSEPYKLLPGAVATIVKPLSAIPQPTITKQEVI

[2] = biological target: T2, Hepatocyte nuclear factor 4-alpha (Rattus norvegicus) (UniProt P22449); experiment: Agonist activity at rat HNF4alpha1 expressed in African green monkey CV1 cells incubated for 24 hrs by firefly luciferase reporter gene assay relative to LGOI00695; assay type: functional, cell-based; details: CV-1
T2 sequence (whole entry): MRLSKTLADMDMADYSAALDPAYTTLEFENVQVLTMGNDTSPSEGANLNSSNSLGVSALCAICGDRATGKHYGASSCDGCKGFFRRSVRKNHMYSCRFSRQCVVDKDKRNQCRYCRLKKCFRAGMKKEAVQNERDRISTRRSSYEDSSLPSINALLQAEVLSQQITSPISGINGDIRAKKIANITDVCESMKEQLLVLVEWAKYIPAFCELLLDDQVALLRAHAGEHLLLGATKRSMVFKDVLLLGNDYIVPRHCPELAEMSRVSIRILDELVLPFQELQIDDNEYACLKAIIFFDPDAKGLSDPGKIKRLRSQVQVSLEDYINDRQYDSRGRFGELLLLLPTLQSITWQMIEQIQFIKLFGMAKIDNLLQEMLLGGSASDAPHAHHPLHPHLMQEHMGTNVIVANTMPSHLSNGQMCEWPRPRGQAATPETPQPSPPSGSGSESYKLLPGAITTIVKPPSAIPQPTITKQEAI

[3] = biological target: T3, Hepatocyte nuclear factor 4-alpha (Rattus norvegicus, UniProt P22449); experiment: Agonist activity at rat HNF4alpha1 expressed in African green monkey CV1 cells incubated for 24 hrs by firefly luciferase reporter gene assay; assay type: functional, cell-based, CV-1
T3 sequence (P22449 whole entry): T2 sequence (whole entry)

[4] = biological target: T2, Hepatocyte nuclear factor 4-alpha (Rattus norvegicus); experiment: Antagonist activity against rat HNF4alpha1 expressed in African green monkey CV1 cells assessed as inhibition of LGOI00695-induced receptor activation incubated for 24 hrs by firefly luciferase reporter gene assay relative to control; assay type: functional, cell-based; details: CV-1
[5] = biological target: T3, Hepatocyte nuclear factor 4-alpha; experiment: Antagonist activity against rat HNF4alpha1 expressed in African green monkey CV1 cells assessed as inhibition of LGOI00695-induced receptor activation incubated for 24 hrs by firefly luciferase reporter gene assay; assay type: functional, cell-based, CV-1

Structure (SMILES) | Ki [1] [µM] | Efficacy [2] [%] | EC50 [3] [µM] | Efficacy [4] [%] | IC50 [5] [µM]
Cc1cc2c(cc1C)[C@H]1OCCC[C@H]1[C@@H](c1ccc(C(=O)O)cc1)N2 (relative stereo) | 0.135 | 60 | 1.73 |  | 
O=C(O)Cc1ccc([C@H]2Nc3ccccc3[C@H]3OCCC[C@@H]23)cc1 (relative stereo) | 0.219 | 134 | 0.649 |  | 

The remaining compounds from weak to strong by Ki [1], led by results:

Ki [1] [µM] | Efficacy [2] [%] | EC50 [3] [µM] | Efficacy [4] [%] | IC50 [5] [µM] | Structure (SMILES)
2.17 |  |  | 69 | 0.3 | O=C(O)c1ccc(C2Nc3ccc4ccccc4c3[C@H]3OCCC[C@@H]23)cc1 (relative stereo)
1.07 | 42 | 0.778 |  |  | O=C(O)c1ccc(C2Nc3ccc4ccccc4c3[C@H]3OCC[C@@H]23)cc1 (relative stereo)
0.234 | 165 | 0.426 |  |  | COC(=O)c1ccc([C@H]2Nc3ccccc3[C@H]3OCCC[C@@H]23)cc1 (relative stereo)
